Source: patent US20190152992A1, “BENZODIOXANE DERIVATIVES AND THEIR PHARMACEUTICAL USE” (Orion Corporation, priority 2016, published 2019)
Counter-ions that a name gives are not always drawn.

How the values were obtained:
[1] = molecular target: T1, human alpha2A receptors (Homo sapiens, UniProt P08913); experiment: cell-based
T1 sequence (P08913 1-465): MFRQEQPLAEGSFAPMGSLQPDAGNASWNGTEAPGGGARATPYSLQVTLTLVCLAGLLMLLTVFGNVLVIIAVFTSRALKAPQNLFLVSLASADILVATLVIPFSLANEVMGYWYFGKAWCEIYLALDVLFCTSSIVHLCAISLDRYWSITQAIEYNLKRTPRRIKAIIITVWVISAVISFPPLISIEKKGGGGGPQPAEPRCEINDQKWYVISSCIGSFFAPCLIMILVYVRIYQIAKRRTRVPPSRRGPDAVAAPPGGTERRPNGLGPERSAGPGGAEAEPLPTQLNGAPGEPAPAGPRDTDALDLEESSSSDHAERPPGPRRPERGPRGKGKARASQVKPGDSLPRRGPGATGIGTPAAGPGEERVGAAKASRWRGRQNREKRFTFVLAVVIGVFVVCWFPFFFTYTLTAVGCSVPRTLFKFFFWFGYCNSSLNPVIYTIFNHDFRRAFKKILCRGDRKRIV

[2] = molecular target: T2, human alpha2C receptors (Homo sapiens, UniProt P18825); experiment: Determination of alpha2C antagonistic activity in vitro (FLIPR calcium assay); settings: for Kb: Alpha 2C Adrenaline Kb, Kb calculated from IC50 with the Cheng-Prusoff equation, adrenaline as agonist, CHO cells, human alpha2C
T2 sequence (P18825 1-462): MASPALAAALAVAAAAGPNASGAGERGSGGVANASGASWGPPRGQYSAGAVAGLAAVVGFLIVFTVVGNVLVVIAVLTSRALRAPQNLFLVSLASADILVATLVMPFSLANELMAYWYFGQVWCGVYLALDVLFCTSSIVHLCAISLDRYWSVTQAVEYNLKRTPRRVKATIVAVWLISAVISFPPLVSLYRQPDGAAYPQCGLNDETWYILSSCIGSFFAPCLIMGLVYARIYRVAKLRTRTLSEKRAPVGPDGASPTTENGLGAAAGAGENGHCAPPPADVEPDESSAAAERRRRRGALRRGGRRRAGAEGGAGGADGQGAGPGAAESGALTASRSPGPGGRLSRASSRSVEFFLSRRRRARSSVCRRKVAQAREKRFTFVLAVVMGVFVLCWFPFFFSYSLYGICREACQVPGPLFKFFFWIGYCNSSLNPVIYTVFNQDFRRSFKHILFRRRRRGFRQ
Protocol: Experiment 1: Determination of alpha2A and alpha2C Antagonistic Activity In Vitro
The growth medium was removed and the cells were incubated with the test compounds and the FLIPR Calcium 6 Assay reagent (Molecular Devices, CA, USA) for 2 h at 37° C. in dark. The test compounds (concentrations in cells 100 pM-10 μM) were dissolved in Probenecid-Ringer consisting of 150 mM NaCl, 3 mM KCl, 1.2 mM MgCl2, 1 mM CaCl2, 5 mM glucose, 20 mM HEPES and 2.5 mM probenecid (pH 7.4 adjusted with 1.0 M NaOH). […] All experiments were performed at 37° C. For agonism measurements the test compounds dissolved in Probenecid-Ringer were applied by FLIPR Tetra at 15 s time point. In order to determine antagonism, the cells were stimulated either with 100 nM adrenaline or noradrenaline and the test compounds were added to the cells 2 h before the experiment with the FLIPR Calcium 6 Assay reagent. […] Typically, there were four replicates at each concentration and six different dose levels. […] The minimum fluorescence value subtracted from the maximum value for each well was used in the calculations. ScreenWorks version 4.0 software was used for analyzing the results. Fitting of the antagonist dose-response results was performed with the free Hill equation and the IC50 values were fitted with IDBS XE software using model 200: y=(A+(B/(1+((x/C)̂D)))), where A is the curve maximum, B the curve minimum and C equals the EC50 value. D is slope factor (Hill). Kb was calculated with the Cheng-Prusoff equation Kb=A/((B/C)+1), where A is the IC50 of antagonist, B the concentration of agonist and C the EC50 of the agonist.

Row | SMILES | IC50 [1] [nM] | Kb [1] [nM] | IC50 [2] [nM] | Kb [2] [nM]
1 | O=C1C(=O)N([C@H]2CCCN(C[C@H]3COc4ccccc4O3)C2)C(=O)N1Cc1ccccc1 [example 131, 1-Benzyl-3-((S)-1-(((S)-2,3-dihydrobenzo[b][1,4]dioxin-2-yl)methyl)piperidin-3-yl)imidazolidine-2,4,5-trione] | 5700 | 256 | 1.64 | 0.165
2 | Fc1ccc2ncn([C@H]3CCCN(C[C@H]4COc5ccccc5O4)C3)c2c1 [example 82, 1-((S)-1-(((S)-2,3-Dihydrobenzo[b][1,4]dioxin-2-yl)methyl)piperidin-3-yl)-6-fluoro-1H-benzo[d]imidazole] | > 10000 | > 449 | < 0.1 | < 0.01
3 | Fc1ccc2c(c1)ncn2[C@H]1CCCN(C[C@H]2COc3ccccc3O2)C1 [example 87, 1-((S)-1-(((S)-2,3-Dihydrobenzo[b][1,4]dioxin-2-yl)methyl)piperidin-3-yl)-5-fluoro-1H-benzo[d]imidazole] | > 10000 | > 449 | < 0.1 | < 0.01
4 | O=C1NC(c2ccccc2)C(=O)N1[C@H]1CCCN(C[C@H]2COc3ccccc3O2)C1 (stereo partly drawn) [example 114, 3-((S)-1-(((S)-2,3-Dihydrobenzo[b][1,4]dioxin-2-yl)methyl)piperidin-3-yl)-5-phenylimidazolidine-2,4-dione] | 2340 | 105 | < 0.1 | < 0.01
5 | O=C1C=C(c2ccccc2)CN1[C@H]1CCCN(C[C@H]2COc3ccccc3O2)C1 [example 39, 1-((S)-1-(((S)-2,3-Dihydrobenzo[b][1,4]dioxin-2-yl)methyl)piperidin-3-yl)-4-phenyl-1H-pyrrol-2(5H)-one] | > 10000 | > 449 | 1.79 | 0.181
6 | C[C@]1(c2ccccc2)CCN([C@H]2CCCN(C[C@H]3COc4ccccc4O3)C2)C1=O [example 14, (R)-1-((S)-1-(((S)-2,3-Dihydrobenzo[b][1,4]dioxin-2-yl)methyl)piperidin-3-yl)-3-methyl-3-phenylpyrrolidin-2-one] | 5840 | 262 | 0.048 | 0.005
7 | Cn1ncc2c1CN([C@H]1CCCN(C[C@H]3COc4ccccc4O3)C1)C2=O [example 80, 5-((S)-1-(((S)-2,3-Dihydrobenzo[b][1,4]dioxin-2-yl)methyl)piperidin-3-yl)-1-methyl-5,6-dihydropyrrolo[3,4-c]pyrazol-4(1H)-one] | > 10000 | > 449 | > 10000 | > 1010
8 | CC(C)N1C(=O)C(=O)N([C@H]2CCCN(C[C@H]3COc4ccccc4O3)C2)C1=O [example 130, 1-((S)-1-(((S)-2,3-Dihydrobenzo[b][1,4]dioxin-2-yl)methyl)-piperidin-3-yl)-3-isopropylimidazolidine-2,4,5-trione] | 6590 | 296 | 0.256 | 0.028
9 | COc1ccc2c(c1)CN([C@H]1CCCN(C[C@H]3COc4ccccc4O3)C1)C2=O [example 69, 2-((S)-1-(((S)-2,3-Dihydrobenzo[b][1,4]dioxin-2-yl)methyl)piperidin-3-yl)-5-methoxyisoindolin-1-one] | > 10000 | > 449 | 0.89 | 0.09
10 | CCN1CC(=O)N([C@H]2CCCN(C[C@H]3COc4ccccc4O3)C2)C1=O [example 105, 3-((S)-1-(((S)-2,3-Dihydrobenzo[b][1,4]dioxin-2-yl)methyl)-piperidin-3-yl)-1-ethylimidazolidine-2,4-dione] | > 10000 | > 449 | 3.27 | 0.33
11 | O=C1c2ccc(F)cc2CN1[C@H]1CCCN(C[C@H]2COc3ccccc3O2)C1 [example 58, 2-((S)-1-(((S)-2,3-Dihydrobenzo[b][1,4]dioxin-2-yl)methyl)piperidin-3-yl)-5-fluoroisoindolin-1-one hydrochloride] | > 10000 | > 449 | 0.299 | 0.03
12 | CCC1(CC)OC(=O)N([C@H]2CCCN(C[C@H]3COc4ccccc4O3)C2)C1=O [example 5, 3-((S)-1-(((S)-2,3-Dihydrobenzo[b][1,4]dioxin-2-yl)methyl)piperidin-3-yl)-5,5-diethyloxazolidine-2,4-dione] | 1300 | 58 | 0.13 | 0.01

Results, then the molecule that gave them:

Row | IC50 [1] [nM] | Kb [1] [nM] | IC50 [2] [nM] | Kb [2] [nM] | SMILES
13 | > 10000 | > 449 | 1.77 | 0.18 | C[C@H]1C(=O)N([C@H]2CCCN(C[C@H]3COc4ccccc4O3)C2)C(=O)[C@@H]1C [example 4, (3R,4R)-1-((S)-1-(((S)-2,3-Dihydrobenzo[b][1,4]dioxin-2-yl)methyl)piperidin-3-yl)-3,4-dimethylpyrrolidine-2,5-dione]
14 | > 10000 | > 449 | 509 | 51.2 | CSc1ncc2c(n1)C(=O)N([C@H]1CCCN(C[C@H]3COc4ccccc4O3)C1)C2 [example 12, 6-((S)-1-(((S)-2,3-Dihydrobenzo[b][1,4]dioxin-2-yl)methyl)piperidin-3-yl)-2-(methylthio)-5H-pyrrolo[3,4-d]pyrimidin-7(6H)-one]
15 | 8670 | 389 | 0.027 | 0.003 | O=C1C(=O)N([C@H]2CCCN(C[C@H]3COc4ccccc4O3)C2)C(=O)N1C1CCCC1 [example 127, 1-Cyclopentyl-3-((S)-1-(((S)-2,3-dihydrobenzo[b][1,4]dioxin-2-yl)methyl)piperidin-3-yl)imidazolidine-2,4,5-trione]
16 | > 10000 | > 449 | 0.117 | 0.014 | CN(C)C(=O)CN1CC(=O)N([C@H]2CCCN(C[C@H]3COc4ccccc4O3)C2)C1=O [example 109, 2-(3-((S)-1-(((S)-2,3-Dihydrobenzo[b][1,4]dioxin-2-yl)methyl)piperidin-3-yl)-2,4-dioxoimidazolidin-1-yl)-N,N-dimethylacetamide]
17 | > 10000 | > 449 | 1.58 | 0.162 | O=C1C(=O)N([C@H]2CCCN(C[C@H]3COc4ccccc4O3)C2)C(=O)N1c1ccccc1 [example 129, 1-((S)-1-(((S)-2,3-Dihydrobenzo[b][1,4]dioxin-2-yl)methyl)-piperidin-3-yl)-3-phenylimidazolidine-2,4,5-trione]
18 | > 10000 | > 449 | 2.08 | 0.21 | CC1C(=O)N([C@H]2CCCN(C[C@H]3COc4ccccc4O3)C2)C(=O)N1C (stereo partly drawn) [example 115, 3-((S)-1-(((S)-2,3-Dihydrobenzo[b][1,4]dioxin-2-yl)methyl)-piperidin-3-yl)-1,5-dimethylimidazolidine-2,4-dione]
19 | > 10000 | > 449 | 1.99 | 0.202 | CC(C)(C)N1CC(=O)N([C@H]2CCCN(C[C@H]3COc4ccccc4O3)C2)C1=O [example 117, 1-tert-Butyl-3-((S)-1-(((S)-2,3-dihydrobenzo[b][1,4]dioxin-2-yl)methyl)piperidin-3-yl)imidazolidine-2,4-dione]
20 | 1330 | 60 | < 0.1 | < 0.01 | O=C1NC(c2ccccc2)(c2ccccc2)CN1[C@H]1CCCN(C[C@H]2COc3ccccc3O2)C1 [example 2, 1-((S)-1-(((S)-2,3-Dihydrobenzo[b][1,4]dioxin-2-yl)methyl)piperidin-3-yl)-4,4-diphenylimidazolidin-2-one]
21 | > 10000 | > 449 | 11.8 | 1.19 | O=C1C=C(c2ccc(F)cc2)CN1[C@H]1CCCN(C[C@H]2COc3ccccc3O2)C1 [example 41, 1-((S)-1-(((S)-2,3-Dihydrobenzo[b][1,4]dioxin-2-yl)methyl)piperidin-3-yl)-4-(4-fluorophenyl)-1H-pyrrol-2(5H)-one]
22 | 4330 | 195 | < 0.1 | < 0.01 | CCc1nc2ccc(F)cc2n1[C@H]1CCCN(C[C@H]2COc3ccccc3O2)C1 [example 84, 1-((S)-1-(((S)-2,3-Dihydrobenzo[b][1,4]dioxin-2-yl)methyl)piperidin-3-yl)-2-ethyl-6-fluoro-1H-benzo[d]imidazole]
23 | 3890 | 175 | 0.01 | 0.001 | O=C1C(=O)N([C@H]2CCCN(C[C@H]3COc4ccccc4O3)C2)C(=O)N1C1CCCCC1 [example 126, 1-Cyclohexyl-3-((S)-1-(((S)-2,3-dihydrobenzo[b][1,4]dioxin-2-yl)methyl)piperidin-3-yl)imidazolidine-2,4,5-trione]
